This experiment concerns the target T1, LiARG (recombinant arginase from L. infantum) (Leishmania infantum, UniProt A4IB49).
T1 construct: gene LINJ_35_1490; recombinant, purified
The experiment is described as follows: urea release, colorimetric UREA CE kit, […] nm. It is filed as biochemical.

Here are results for one compound from PMC11851448, “Meliponini Geopropolis Extracts Induce ROS Production and Death in Leishmania amazonensis Promastigotes and Axenic Amastigotes In Vitro” (Biology, 2025).

Usually IC50 stands for the concentration needed to halve the response being measured.

Consider `O=c1c(O)c(-c2ccc(O)c(O)c2)oc2cc(O)cc(O)c12` [quercetin], for which the 50% inhibitory concentration (IC50) was 23.2 µM.
